Data reported in patent US20240116920A1 (priority 2020, published 2024).

Legend:
JAK2 = JAK2 (Homo sapiens, UniProt O60674); assay: biochemical
JAK3 = target: T1, JAK3 (Homo sapiens, UniProt P52333); assay: biochemical
T1 sequence (P52333 1-1124): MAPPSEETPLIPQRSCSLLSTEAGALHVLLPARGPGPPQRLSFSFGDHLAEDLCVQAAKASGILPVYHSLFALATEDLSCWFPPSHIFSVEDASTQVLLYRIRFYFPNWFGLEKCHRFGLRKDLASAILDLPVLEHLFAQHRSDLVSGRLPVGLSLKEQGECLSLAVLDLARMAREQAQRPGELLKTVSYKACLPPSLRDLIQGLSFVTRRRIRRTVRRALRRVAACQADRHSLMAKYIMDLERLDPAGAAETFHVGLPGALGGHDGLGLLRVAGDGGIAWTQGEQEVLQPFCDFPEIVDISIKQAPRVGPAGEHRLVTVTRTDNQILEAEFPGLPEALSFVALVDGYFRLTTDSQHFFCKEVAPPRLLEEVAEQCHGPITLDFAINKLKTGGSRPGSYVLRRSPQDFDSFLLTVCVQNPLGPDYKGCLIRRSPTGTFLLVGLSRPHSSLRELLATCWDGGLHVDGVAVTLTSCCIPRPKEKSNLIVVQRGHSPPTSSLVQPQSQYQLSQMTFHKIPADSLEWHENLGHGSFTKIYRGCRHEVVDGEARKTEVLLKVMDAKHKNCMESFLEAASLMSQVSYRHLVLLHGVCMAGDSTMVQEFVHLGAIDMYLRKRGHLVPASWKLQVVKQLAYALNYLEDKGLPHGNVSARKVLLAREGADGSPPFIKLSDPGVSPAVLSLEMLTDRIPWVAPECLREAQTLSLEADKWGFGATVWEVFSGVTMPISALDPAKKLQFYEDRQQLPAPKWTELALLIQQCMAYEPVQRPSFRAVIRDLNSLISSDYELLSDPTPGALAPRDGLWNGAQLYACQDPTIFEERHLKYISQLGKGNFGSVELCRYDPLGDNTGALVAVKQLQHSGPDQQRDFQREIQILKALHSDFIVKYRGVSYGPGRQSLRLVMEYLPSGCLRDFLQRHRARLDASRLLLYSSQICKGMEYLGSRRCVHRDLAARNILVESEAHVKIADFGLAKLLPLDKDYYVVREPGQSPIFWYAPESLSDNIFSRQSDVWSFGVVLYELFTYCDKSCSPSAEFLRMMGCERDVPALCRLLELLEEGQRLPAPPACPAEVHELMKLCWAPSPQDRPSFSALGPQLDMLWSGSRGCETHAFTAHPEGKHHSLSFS

TYK2 = TYK2 (Homo sapiens, UniProt P29597); assay: biochemical
TYK2, sequence (P29597 whole entry): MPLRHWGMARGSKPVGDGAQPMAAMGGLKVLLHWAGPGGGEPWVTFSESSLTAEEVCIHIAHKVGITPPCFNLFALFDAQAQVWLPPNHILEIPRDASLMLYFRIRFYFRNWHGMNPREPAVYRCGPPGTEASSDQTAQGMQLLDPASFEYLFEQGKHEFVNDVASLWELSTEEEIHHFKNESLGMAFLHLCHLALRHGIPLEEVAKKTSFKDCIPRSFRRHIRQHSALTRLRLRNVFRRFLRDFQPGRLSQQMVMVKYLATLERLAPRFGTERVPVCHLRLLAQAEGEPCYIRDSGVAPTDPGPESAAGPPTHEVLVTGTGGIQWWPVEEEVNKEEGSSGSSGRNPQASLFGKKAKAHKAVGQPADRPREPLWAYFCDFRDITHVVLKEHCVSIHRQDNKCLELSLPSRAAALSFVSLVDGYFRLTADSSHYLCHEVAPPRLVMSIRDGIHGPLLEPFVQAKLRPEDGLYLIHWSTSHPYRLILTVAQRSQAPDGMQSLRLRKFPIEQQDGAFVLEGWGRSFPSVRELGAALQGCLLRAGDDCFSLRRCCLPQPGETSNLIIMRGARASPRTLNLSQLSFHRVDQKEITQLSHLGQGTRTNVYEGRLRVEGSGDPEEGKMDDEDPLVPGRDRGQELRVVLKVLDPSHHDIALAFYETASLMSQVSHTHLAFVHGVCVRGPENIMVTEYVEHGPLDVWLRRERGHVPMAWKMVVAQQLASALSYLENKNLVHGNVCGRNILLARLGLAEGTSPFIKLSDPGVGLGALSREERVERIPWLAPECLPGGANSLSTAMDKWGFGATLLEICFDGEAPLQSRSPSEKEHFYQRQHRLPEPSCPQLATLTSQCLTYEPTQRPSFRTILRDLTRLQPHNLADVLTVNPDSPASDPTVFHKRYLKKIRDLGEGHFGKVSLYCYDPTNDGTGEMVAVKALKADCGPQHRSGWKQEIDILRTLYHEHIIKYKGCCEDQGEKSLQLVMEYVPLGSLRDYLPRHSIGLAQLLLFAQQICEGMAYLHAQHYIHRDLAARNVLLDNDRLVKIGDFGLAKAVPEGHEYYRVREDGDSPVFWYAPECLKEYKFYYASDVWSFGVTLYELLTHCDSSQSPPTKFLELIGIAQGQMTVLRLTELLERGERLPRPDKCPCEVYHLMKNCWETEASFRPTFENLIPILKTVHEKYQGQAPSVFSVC

JAK1/STAT3 signaling = assay: Immunobit cell-based pSTAT3 and pSTAT5 immunoassay; parameters: species or system human
[1] = system: LX-2 human hepatic stellate cells; assay: TGF-β-induced LX-2 cell proliferation (CCK8); assay type: cell-based

JAK2, sequence (O60674 whole entry): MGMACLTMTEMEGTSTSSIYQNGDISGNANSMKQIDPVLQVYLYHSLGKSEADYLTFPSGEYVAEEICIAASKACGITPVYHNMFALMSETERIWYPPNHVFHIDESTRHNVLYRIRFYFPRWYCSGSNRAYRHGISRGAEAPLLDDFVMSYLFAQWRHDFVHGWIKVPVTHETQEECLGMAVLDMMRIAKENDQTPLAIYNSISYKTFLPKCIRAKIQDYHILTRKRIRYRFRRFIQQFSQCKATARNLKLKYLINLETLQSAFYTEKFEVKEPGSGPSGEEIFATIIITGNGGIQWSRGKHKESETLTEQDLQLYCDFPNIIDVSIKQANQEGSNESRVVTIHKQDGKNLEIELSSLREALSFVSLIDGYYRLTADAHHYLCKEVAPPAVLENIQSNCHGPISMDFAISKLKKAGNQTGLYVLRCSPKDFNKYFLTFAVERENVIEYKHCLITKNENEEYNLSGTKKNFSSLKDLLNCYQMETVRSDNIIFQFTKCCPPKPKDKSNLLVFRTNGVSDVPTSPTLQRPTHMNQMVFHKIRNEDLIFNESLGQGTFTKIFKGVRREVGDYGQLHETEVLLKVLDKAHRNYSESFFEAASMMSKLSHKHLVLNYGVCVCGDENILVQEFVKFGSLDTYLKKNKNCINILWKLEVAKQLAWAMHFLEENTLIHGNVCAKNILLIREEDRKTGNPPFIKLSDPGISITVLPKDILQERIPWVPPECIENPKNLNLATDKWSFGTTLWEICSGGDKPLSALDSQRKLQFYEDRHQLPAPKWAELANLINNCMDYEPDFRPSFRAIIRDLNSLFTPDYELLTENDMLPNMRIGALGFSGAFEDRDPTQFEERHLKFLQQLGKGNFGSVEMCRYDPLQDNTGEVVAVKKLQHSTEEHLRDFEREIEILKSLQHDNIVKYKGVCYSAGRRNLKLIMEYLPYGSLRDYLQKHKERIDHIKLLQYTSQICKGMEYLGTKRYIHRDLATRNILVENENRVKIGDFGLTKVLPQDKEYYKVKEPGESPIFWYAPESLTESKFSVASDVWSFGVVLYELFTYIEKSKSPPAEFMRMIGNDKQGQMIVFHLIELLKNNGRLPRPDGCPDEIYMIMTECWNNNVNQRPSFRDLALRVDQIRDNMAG

Row | Compound | IC50 (JAK2) | IC50 (JAK3) | IC50 (TYK2) | effect on JAK/STAT signaling (pSTAT3, pSTAT5) (JAK1/STAT3 signaling) | inhibitory effect on LX-2 proliferation induced by TGF-β ([1]; LX-2, TGF-β-induced, CCK8) | inhibitory effect on LX-2 cell growth versus tofacitinib or filgotinib ([1]; incubation with TGF-β for 72 h)
1 | CNC(=O)c1cnc2[nH]ccc2c1N[C@@H]1CCN(Cc2cnc(C(F)(F)F)nc2)[C@H](C)C1 (racemic) [compound 49] | 8.78 nM | 8.39 nM | 36.9 nM | – | – | –
2 | O=C(Nc1nc2cccc(-c3ccc(CN4CCS(=O)(=O)CC4)cc3)n2n1)C1CC1 [filgotinib] | – | – | – | reduced pSTAT3 and pSTAT5, but with less effect than 31g | – | –
3 | COC(=O)c1ccc2c(c1)NC(=O)/C2=C(\Nc1ccc(N(C)C(=O)CN2CCN(C)CC2)cc1)c1ccccc1 [nintedanib] | – | – | – | did not affect the JAK/STAT pathway | dose-dependent inhibitory effects | superior to those of tofacitinib or filgotinib
